US20230111310A1, “CARBOXYLIC ACID DERIVATIVE-SUBSTITUTED IMINO ARYL COMPOUND, PREPARATION METHOD THEREFOR, HERBICIDAL COMPOSITION AND USE THEREOF” (Qingdao Kingagroot Chemical Compound Co., Ltd., priority 2020, published 2023)

The molecules below were run on Alopecurus japonicus (assay: Weeding effect in post-emergence stage). Details: Dose 15 g/ha; level of fresh weight growth control rate.
Type: in vivo
How it was run: (§1)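 Weeds were treated post-emergence at 2-3 leaves with compound doses from 7.5 up to 500 g/ha, formulated in acetone–Tween 80 with methyl oleate synergist. Efficacy was assessed as growth control after 3 weeks.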

| Structure (SMILES) | Weeding effect in post-emergence stage, Alopecurus japonicus |
| --- | --- |
| CC(O/N=C/c1cc(-n2c(=O)cc(C(F)(F)F)n(C)c2=O)c(F)cc1Cl)C(=O)OCCC(F)(F)F (racemic) [Compound 221] | 4 (Level 4: growth control rate is greater than or equal to 60% and less than 85%) |
| CC(O/N=C/c1cc(-n2c(=O)cc(C(F)(F)F)n(C)c2=O)c(F)cc1Cl)C(=O)OC/C=C/Cl (racemic) [Compound 225] | 4 (Level 4: growth control rate is greater than or equal to 60% and less than 85%) |
| CC(O/N=C/c1cc(-n2c(=O)cc(C(F)(F)F)n(C)c2=O)c(F)cc1Cl)C(=O)OCC#N (racemic) [Compound 226] | 5 (Level 5: growth control rate is above 85%) |
| CC(O/N=C/c1cc(-n2c(=O)cc(C(F)(F)F)n(C)c2=O)c(F)cc1Cl)C(=O)OCCC#N (racemic) [Compound 227] | 5 (Level 5: growth control rate is above 85%) |
| CC(O/N=C/c1cc(-n2c(=O)cc(C(F)(F)F)n(C)c2=O)c(F)cc1Cl)C(=O)OCCO (racemic) [Compound 228] | 5 (Level 5: growth control rate is above 85%) |
| COC(=O)C(C)O/N=C/c1cc(-n2c(=S)cc(C(F)(F)F)n(C)c2=O)c(F)cc1Cl (racemic) [Compound 349] | 5 (Level 5: growth control rate is above 85%) |

Same assay, conditions: Dose 60 g/ha; level of fresh weight growth control rate

| Structure (SMILES) | Weeding effect in post-emergence stage, Alopecurus japonicus |
| --- | --- |
| COC(=O)C(C)O/N=C/c1cc(-n2c(=S)cc(C(F)(F)F)n(C)c2=S)c(F)cc1Cl (racemic) [Compound 351] | 5 (Level 5: growth control rate is above 85%) |

The molecules below were run on Abutilon theophrasti (assay: Weeding effect in post-emergence stage). Details: Dose 15 g/ha; level of fresh weight growth control rate.
Type: in vivo
How it was run: as §1

| Structure (SMILES) | Weeding effect in post-emergence stage, Abutilon theophrasti |
| --- | --- |
| CC(O/N=C/c1cc(-n2c(=O)cc(C(F)(F)F)n(C)c2=O)c(F)cc1Cl)C(=O)OCCC(F)(F)F (racemic) [Compound 221] | 5 (Level 5: growth control rate is above 85%) |
| CC(O/N=C/c1cc(-n2c(=O)cc(C(F)(F)F)n(C)c2=O)c(F)cc1Cl)C(=O)OC/C=C/Cl (racemic) [Compound 225] | 5 (Level 5: growth control rate is above 85%) |
| CC(O/N=C/c1cc(-n2c(=O)cc(C(F)(F)F)n(C)c2=O)c(F)cc1Cl)C(=O)OCC#N (racemic) [Compound 226] | 5 (Level 5: growth control rate is above 85%) |
| CC(O/N=C/c1cc(-n2c(=O)cc(C(F)(F)F)n(C)c2=O)c(F)cc1Cl)C(=O)OCCC#N (racemic) [Compound 227] | 5 (Level 5: growth control rate is above 85%) |
| CC(O/N=C/c1cc(-n2c(=O)cc(C(F)(F)F)n(C)c2=O)c(F)cc1Cl)C(=O)OCCO (racemic) [Compound 228] | 5 (Level 5: growth control rate is above 85%) |
| COC(=O)C(C)O/N=C/c1cc(-n2c(=S)cc(C(F)(F)F)n(C)c2=O)c(F)cc1Cl (racemic) [Compound 349] | 5 (Level 5: growth control rate is above 85%) |

Same assay, conditions: Dose 60 g/ha; level of fresh weight growth control rate

| Structure (SMILES) | Weeding effect in post-emergence stage, Abutilon theophrasti |
| --- | --- |
| COC(=O)C(C)O/N=C/c1cc(-n2c(=S)cc(C(F)(F)F)n(C)c2=S)c(F)cc1Cl (racemic) [Compound 351] | 5 (Level 5: growth control rate is above 85%) |

These molecules were tested on Setaria viridis (assay: Weeding effect in post-emergence stage). Details: Dose 15 g/ha; level of fresh weight growth control rate.
Type: in vivo
How it was run: as §1

| Structure (SMILES) | Weeding effect in post-emergence stage, Setaria viridis |
| --- | --- |
| CC(O/N=C/c1cc(-n2c(=O)cc(C(F)(F)F)n(C)c2=O)c(F)cc1Cl)C(=O)OCCC(F)(F)F (racemic) [Compound 221] | 5 (Level 5: growth control rate is above 85%) |
| CC(O/N=C/c1cc(-n2c(=O)cc(C(F)(F)F)n(C)c2=O)c(F)cc1Cl)C(=O)OC/C=C/Cl (racemic) [Compound 225] | 5 (Level 5: growth control rate is above 85%) |
| CC(O/N=C/c1cc(-n2c(=O)cc(C(F)(F)F)n(C)c2=O)c(F)cc1Cl)C(=O)OCC#N (racemic) [Compound 226] | 5 (Level 5: growth control rate is above 85%) |
| CC(O/N=C/c1cc(-n2c(=O)cc(C(F)(F)F)n(C)c2=O)c(F)cc1Cl)C(=O)OCCC#N (racemic) [Compound 227] | 5 (Level 5: growth control rate is above 85%) |
| CC(O/N=C/c1cc(-n2c(=O)cc(C(F)(F)F)n(C)c2=O)c(F)cc1Cl)C(=O)OCCO (racemic) [Compound 228] | 5 (Level 5: growth control rate is above 85%) |
| COC(=O)C(C)O/N=C/c1cc(-n2c(=S)cc(C(F)(F)F)n(C)c2=O)c(F)cc1Cl (racemic) [Compound 349] | 5 (Level 5: growth control rate is above 85%) |

Same assay, conditions: Dose 60 g/ha; level of fresh weight growth control rate

| Structure (SMILES) | Weeding effect in post-emergence stage, Setaria viridis |
| --- | --- |
| COC(=O)C(C)O/N=C/c1cc(-n2c(=S)cc(C(F)(F)F)n(C)c2=S)c(F)cc1Cl (racemic) [Compound 351] | 5 (Level 5: growth control rate is above 85%) |

The molecules below were run on Digitaria sanguinalis (assay: Weeding effect in post-emergence stage). Details: Dose 15 g/ha; level of fresh weight growth control rate.
Type: in vivo
How it was run: as §1

| Structure (SMILES) | Weeding effect in post-emergence stage, Digitaria sanguinalis |
| --- | --- |
| CC(O/N=C/c1cc(-n2c(=O)cc(C(F)(F)F)n(C)c2=O)c(F)cc1Cl)C(=O)OCCC(F)(F)F (racemic) [Compound 221] | 5 (Level 5: growth control rate is above 85%) |
| CC(O/N=C/c1cc(-n2c(=O)cc(C(F)(F)F)n(C)c2=O)c(F)cc1Cl)C(=O)OC/C=C/Cl (racemic) [Compound 225] | 5 (Level 5: growth control rate is above 85%) |
| CC(O/N=C/c1cc(-n2c(=O)cc(C(F)(F)F)n(C)c2=O)c(F)cc1Cl)C(=O)OCC#N (racemic) [Compound 226] | 5 (Level 5: growth control rate is above 85%) |
| CC(O/N=C/c1cc(-n2c(=O)cc(C(F)(F)F)n(C)c2=O)c(F)cc1Cl)C(=O)OCCC#N (racemic) [Compound 227] | 5 (Level 5: growth control rate is above 85%) |
| CC(O/N=C/c1cc(-n2c(=O)cc(C(F)(F)F)n(C)c2=O)c(F)cc1Cl)C(=O)OCCO (racemic) [Compound 228] | 5 (Level 5: growth control rate is above 85%) |
| COC(=O)C(C)O/N=C/c1cc(-n2c(=S)cc(C(F)(F)F)n(C)c2=O)c(F)cc1Cl (racemic) [Compound 349] | 5 (Level 5: growth control rate is above 85%) |

Same assay, conditions: Dose 60 g/ha; level of fresh weight growth control rate

| Structure (SMILES) | Weeding effect in post-emergence stage, Digitaria sanguinalis |
| --- | --- |
| COC(=O)C(C)O/N=C/c1cc(-n2c(=S)cc(C(F)(F)F)n(C)c2=S)c(F)cc1Cl (racemic) [Compound 351] | 5 (Level 5: growth control rate is above 85%) |

What follows are molecules tested on Eleusine indica (assay: Weeding effect in post-emergence stage). Details: Dose 15 g/ha; level of fresh weight growth control rate.
Type: in vivo
How it was run: as §1

| Structure (SMILES) | Weeding effect in post-emergence stage, Eleusine indica |
| --- | --- |
| CC(O/N=C/c1cc(-n2c(=O)cc(C(F)(F)F)n(C)c2=O)c(F)cc1Cl)C(=O)OCCC(F)(F)F (racemic) [Compound 221] | 5 (Level 5: growth control rate is above 85%) |
| CC(O/N=C/c1cc(-n2c(=O)cc(C(F)(F)F)n(C)c2=O)c(F)cc1Cl)C(=O)OC/C=C/Cl (racemic) [Compound 225] | 5 (Level 5: growth control rate is above 85%) |
| CC(O/N=C/c1cc(-n2c(=O)cc(C(F)(F)F)n(C)c2=O)c(F)cc1Cl)C(=O)OCC#N (racemic) [Compound 226] | 5 (Level 5: growth control rate is above 85%) |
| CC(O/N=C/c1cc(-n2c(=O)cc(C(F)(F)F)n(C)c2=O)c(F)cc1Cl)C(=O)OCCC#N (racemic) [Compound 227] | 5 (Level 5: growth control rate is above 85%) |
| CC(O/N=C/c1cc(-n2c(=O)cc(C(F)(F)F)n(C)c2=O)c(F)cc1Cl)C(=O)OCCO (racemic) [Compound 228] | 5 (Level 5: growth control rate is above 85%) |
| COC(=O)C(C)O/N=C/c1cc(-n2c(=S)cc(C(F)(F)F)n(C)c2=O)c(F)cc1Cl (racemic) [Compound 349] | 5 (Level 5: growth control rate is above 85%) |

Same assay, conditions: Dose 60 g/ha; level of fresh weight growth control rate

| Structure (SMILES) | Weeding effect in post-emergence stage, Eleusine indica |
| --- | --- |
| COC(=O)C(C)O/N=C/c1cc(-n2c(=S)cc(C(F)(F)F)n(C)c2=S)c(F)cc1Cl (racemic) [Compound 351] | 5 (Level 5: growth control rate is above 85%) |

What follows are molecules tested on Echinochloa crusgalli (assay: Weeding effect in post-emergence stage). Details: Dose 15 g/ha; level of fresh weight growth control rate.
Type: in vivo
How it was run: as §1

| Structure (SMILES) | Weeding effect in post-emergence stage, Echinochloa crusgalli |
| --- | --- |
| CC(O/N=C/c1cc(-n2c(=O)cc(C(F)(F)F)n(C)c2=O)c(F)cc1Cl)C(=O)OCCC(F)(F)F (racemic) [Compound 221] | 5 (Level 5: growth control rate is above 85%) |
| CC(O/N=C/c1cc(-n2c(=O)cc(C(F)(F)F)n(C)c2=O)c(F)cc1Cl)C(=O)OC/C=C/Cl (racemic) [Compound 225] | 5 (Level 5: growth control rate is above 85%) |
| CC(O/N=C/c1cc(-n2c(=O)cc(C(F)(F)F)n(C)c2=O)c(F)cc1Cl)C(=O)OCC#N (racemic) [Compound 226] | 5 (Level 5: growth control rate is above 85%) |
| CC(O/N=C/c1cc(-n2c(=O)cc(C(F)(F)F)n(C)c2=O)c(F)cc1Cl)C(=O)OCCC#N (racemic) [Compound 227] | 5 (Level 5: growth control rate is above 85%) |
| CC(O/N=C/c1cc(-n2c(=O)cc(C(F)(F)F)n(C)c2=O)c(F)cc1Cl)C(=O)OCCO (racemic) [Compound 228] | 5 (Level 5: growth control rate is above 85%) |
| COC(=O)C(C)O/N=C/c1cc(-n2c(=S)cc(C(F)(F)F)n(C)c2=O)c(F)cc1Cl (racemic) [Compound 349] | 5 (Level 5: growth control rate is above 85%) |

Same assay, conditions: Dose 60 g/ha; level of fresh weight growth control rate

| Structure (SMILES) | Weeding effect in post-emergence stage, Echinochloa crusgalli |
| --- | --- |
| COC(=O)C(C)O/N=C/c1cc(-n2c(=S)cc(C(F)(F)F)n(C)c2=S)c(F)cc1Cl (racemic) [Compound 351] | 5 (Level 5: growth control rate is above 85%) |
